Patent publication US20260207769A1, “ANTIBODY DRUG CONJUGATES” (YALE UNIVERSITY, priority 2022, published 2026)

Tests used:
DLD-1 cells = test: treatment duration, single dose of SN38 or 3E10-SN38 conjugates, cancer cell growth (Example 7); type: cell-based; details: effects dose dependent
Excerpt: FIGS. 14, 15, and 16 show the cell viability of WT and BRCA2^−/− DLD-1 cells after treatment with SN38, cWT-SN38 or cD31N-SN38 at 3, 5, and 7 days post-treatment, respectively.
FIGS. 14A, 15A, and 16A show the viability of WT DLD-1 cells and FIGS. 14B, 15B, and 16B show the viability of BRCA2^−/−- DLD-1 cells. The calculated EC50 values are provided.
FIGS. 17 and 18 show the effects of shorter and longer term treatment on cell viability in WT DLD-1 cells (FIGS. 17A and 17B) and BRCA2^−/−- DLD-1 cells (FIGS. 18A and 18B) at day 7 after treatment with SN38 or cD31N-SN38 conjugate. Shorter term treatment was defined as a 24 hour treatment followed by a change to fresh treatment-free media. Longer term treatment was defined as 7 days of treatment without a change of medium. The calculated EC50 values are provided.

[1] = tested on: PEO-1 (BRCA2^−/−) ovarian adenocarcinoma cells; test: Cell viability of PEO-1 cells; type: cell-based; details: PEO-1 (BRCA2-/-) cells, at 7 days
Excerpt: Cancer cell lines were acquired from ATCC and cultured according to well known methods in the art. Treatment with cytotoxic agents, antibodies, or ADCs refers to the addition of the cytotoxic agent, antibody or ADC (i.e., DM1 or cD31N-DM1, etc.) to the culture media for a set duration.
The effects of longer-term treatment with SN38 and cD31N-SN38 on PEO-4 (WT) and PEO-1 (BRCA2^−/−) ovarian cancer cells were investigated.

[2] = tested on: DNA damage response proteins such as γH2AX, p-ATM, and p-ATR; test: Western blot of DNA damage response proteins in BRCA2-/- DLD-1 cells; type: cell-based, human
Experimental: SN38 causes DNA damage via inhibition of topoisomerase I. Therefore, DNA damage was measured in both wild-type (WT) and BRCA2 deficient (BRCA2′) DLD-1 cells by induction of γH2AX after treatment with one of the following: no treatment (NT), SN38 alone (SN38), wild-type 3E10 antibody alone (cWT), 3E10-cD31N antibody alone, cWT-SN38 conjugate, or cD31N-SN38 conjugate. After treatment with 100 nM of the antibody or conjugate for 48 hours, the DLD-1 cells were collected for Western blot analysis to measure 7H2AX protein levels. […] These findings were consistent in both WT and BRCA2^−/− DLD-1 cells, but γH2AX protein levels were elevated across all groups in BRCA2^−/− DLD-1 cells.
DNA damage caused by SN38 or 3E10-SN38 conjugates in WT and BRCA2^−/− DLD-1 cells was assessed by measuring the levels of proteins involved in DNA damage response, p-ATM, p-ATR, pBRCA1, Topoisomerase 1 (TOPO-1), pChk2, pChk1, γH2AX and H2AX. DLD-1 cells were treated with 100 nM of SN38, cWT antibody, cD31N antibody, cWT-SN38 conjugate, or cD31N-SN38 conjugate and collected for Western blot after 24 (FIG. 21A) and 48 hours (FIG. 21B). No treatment (NT) was used as control.

WT DLD-1 cells [3] = test: Single 24 hour treatment, long-term viability of WT DLD-1 cells; type: cell-based, human; details: WT DLD-1, 24 hour treatment, days 3, 5 and 7
Experimental: (§1) The effects of treatment with the SN38 or 3E10-SN38 conjugates on the colorectal cancer DLD-1 cell line were investigated. WT and BRCA2^−/− deficient DLD-1 cells were tested. FIG. 13 provides the study protocol and timeline. Each well of a 96-well plate was loaded with 1000 DLD-1 cells. 24 hours post-plating, cells were treated with different concentrations of cWT-SN38 conjugate, cD31N-SN38 conjugate, or SN38 for 24 hours. After treatment, the media was replaced with fresh treatment-free media and was not changed again. Cell viability and half maximal effective concentration (EC50) were tracked every 48 hours post-treatment on days 3, 5, and 7. Half maximal effective concentration (EC50) is a measure of the concentration of a drug, antibody or toxicant which induces a response halfway between the baseline and maximum after a specified exposure time.

BRCA2^−/− DLD-1 cells [4] = test: Single 24 hour treatment, long-term viability of BRCA2-/- DLD-1 cells; type: cell-based, human; details: BRCA2-/- DLD-1, 24 hour treatment, days 3, 5 and 7
Experimental: as §1

WT DLD-1 cells [5] = test: Shorter versus longer term treatment, viability of WT DLD-1 cells; type: cell-based, human
Experimental: (§2) To determine whether the EC50 values would change based on the duration of the treatment with 3E10-SN38 conjugates, WT or BRCA2^−/− DLD-1 cells were treated with different concentrations of SN38, cD31N antibody, or cD31N-SN38 conjugate and cell viability, and the EC50 values were tracked over time. Shorter term treatment was defined as a 24 hour treatment followed by a change to fresh treatment-free medium. Longer term treatment was defined as treatment without a change of medium for 7 days (e.g., the treatment is not removed).

BRCA2^−/− DLD-1 cells [6] = test: Shorter versus longer term treatment, viability of BRCA2-/- DLD-1 cells; type: cell-based, human
Experimental: as §2

[7] = tested on: DNA damage response proteins, such as 7H2AX, p-ATM, and p-ATR; test: Western blot of DNA damage response proteins in DLD-1 cells after 96 hours; type: cell-based, human; details: 100 nM
Experimental: To measure the expression of DNA damage response proteins at a later time point, DLD-1 cells were treated with 100 nM of SN38, cD31N antibody, or cD31N-SN38 conjugate and collected for Western blot after 96 hours (4 days). Results at the 96 hour time point were consistent with the 24 and 48 hour results.

[8] = tested on: DNA damage response proteins such as γH2AX, p-ATM, and p-ATR; test: Western blot of DNA damage response proteins in WT HCT116 cells; type: cell-based; details: WT HCT116, 100 nM, 24 hours
Experimental: (§3) DNA damage induced by SN38 or the humanized 3E10-SN38 conjugates in WT and IDH1^mut HCT116 cells was assessed by measuring the levels of proteins involved in DNA damage response, p-ATM, p-ATR, pChk2, pChk1, 7H2AX and H2AX. HCT116 cells were treated with 100 nM of SN38, V66 antibody, or V66-SN38 conjugate and collected for Western blot after 24 hours and the results are shown in FIG. 26. No treatment (NT) was used as control.

[9] = tested on: DNA damage response proteins such as γH2AX, p-ATM, and p-ATR; test: Western blot of DNA damage response proteins in IDH1mut HCT116 cells; type: cell-based; details: IDH1mut HCT116, 100 nM, 24 hours
Experimental: as §3

SMILES: CCc1c2c(nc3ccc(O)cc13)-c1cc3c(c(=O)n1C2)COC(=O)[C@]3(O)CC [SN38, SN-38]
- long-term effects on cancer cell growth (DLD-1 cells): can have long-term effects on cancer cell growth
- cell viability [1]: reduced cell viability in a concentration-dependent manner resulting in low EC50 values
- protein levels of DNA damage response proteins ([2]; BRCA2-/- DLD-1, 100 nM, 24 and 48 hour time points): increased the protein levels of DNA damage response proteins such as γH2AX, p-ATM, and p-ATR
- TOPO-1 levels ([2]; BRCA2-/- DLD-1, 100 nM, 24 and 48 hours): reduced TOPO-1 levels
- γH2AX induction (Western blot) ([2]; BRCA2-/- DLD-1, 100 nM, 24 hours (Example 10)): 7H2AX was induced
- γH2AX protein levels (Western blot) ([2]; BRCA2-/- DLD-1 cells, 100 nM, 48 hours (Example 5)): induced the highest levels of γH2AX expression
- EC50 values compared between treatments (WT DLD-1 cells [3]): lower EC50 value than both 3E10-SN38 conjugates
- EC50 values compared between treatments (BRCA2^−/− DLD-1 cells [4]): lower EC50 value than both 3E10-SN38 conjugates
- cell viability (WT DLD-1 cells [5]; WT DLD-1, day 7 of longer term treatment): cell viability was reduced
- cell viability and EC50, longer term versus shorter term treatment (WT DLD-1 cells [5]; WT DLD-1, 7 days without change of medium vs 24 hour treatment): lower cell viability and lower EC50 values than with shorter term treatment
- cell viability (BRCA2^−/− DLD-1 cells [6]; BRCA2-/- DLD-1, day 7 of longer term treatment): cell viability was reduced
- cell viability and EC50, longer term versus shorter term treatment (BRCA2^−/− DLD-1 cells [6]; BRCA2-/- DLD-1, 7 days without change of medium vs 24 hour treatment): lower cell viability and lower EC50 values than with shorter term treatment
- TOPO-1 levels [7]: TOPO-1 levels were also reduced
- expression of DNA damage response proteins [7]: increased expression of DNA damage response proteins
- protein levels of DNA damage response proteins [8]: increased the protein levels of DNA damage response proteins such as γH2AX, p-ATM, and p-ATR
- protein levels of DNA damage response proteins [9]: increased the protein levels of DNA damage response proteins such as γH2AX, p-ATM, and p-ATR
